Experimental data published in patent publication US20050090563A1, “Method and compositions for inhibiting the scent tracking ability of mosquitoes and biting midges” (Bedoukian Research, Inc., priority 2003, published 2005).

Test system: Aedes aegypti mosquitoes
Assay: Field test of mosquito landings on human subjects near candles containing the test substance
Type: in vivo
Conditions: for Four Day Totals of Mosquito Landings On Subjects: field test, Connecticut, August 2003, candles at four corners of 7 ft x 7 ft squares, 18 inches above ground, four human subjects, landings counted on arms, legs and torso, control without substance 152
Procedure: In a test of the inhibiting ability of the (S)-(+)-linalool chiral isomer compound of this invention, the following field test was conducted. The study was conducted in August 2003 on a site in Connecticut. Candles containing the test compound or no compound were placed 18 inches above the ground at the four corners of 7 ft×7 ft squares, with the squares being placed 50 ft apart. Four subjects (persons) were employed in the tests. On a given day, the subjects were rotated through all four positions of a square. Each day, treatments rotated to the next position, so that each treatment was tested at each site. The landing of mosquitoes on the subject were counted. Landing counts were taken from the arms, legs and torso of a test subject.

Compound | Four Day Totals of Mosquito Landings On Subjects | Mosquito landings relative to linalool (same candle field test, four day totals)
C=CC(C)(O)CCC=C(C)C (stereo not drawn) [Linalool: 35% (+), 65% (−), Linalool, reference compound] | 82 | –
C=CC(C)(O)CCC=C(C)C (stereo not drawn) [Linalool: 85% (+), 15% (−), Linalool] | 42 | 73.5%
